Where two headings read alike, the source gives them in different places.
Assays:
[1] = 52-week clinical trial in type 1 diabetes: basal insulin + prandial TI Inhalation Powder vs basal insulin + SC insulin aspart; type: in vivo, human
Text: A Prospective, Multi-Center, Open-Label, Randomized, Controlled Clinical Trial Comparing the Efficacy and Safety in Subjects with Type 1 Diabetes Receiving SC Basal Insulin and Prandial Inhalation of Insulin-FDKP Versus SC Basal and Prandial Insulin Over a 52-Week Treatment Period and a 4-Week Follow-up
This was a prospective, multi-country, multicenter, open label, randomized, controlled clinical trial comparing glycemic control in subjects with type 1 diabetes receiving basal insulin and prandial insulin-FDKP (TI) Inhalation Powder (TI Inhalation Powder group) with subjects receiving basal insulin and SC rapid-acting insulin aspart (comparator group). This study included a 52-week treatment phase and a 4-week follow-up phase. During the 4-week follow-up phase, pulmonary function and select clinical laboratory assessments were scheduled.
The study began with enrollment at Week −3. Subjects received a complete battery of safety and eligibility assessments, including HbA1c and fasting plasma glucose (FPG).
At Week −1, subjects were randomized to one of the following 2 treatments: • Basal insulin+prandial TI Inhalation Powder • Basal insulin+prandial SC rapid-acting insulin
At Week −1, subjects again completed the first three components of the Insulin Treatment Questionnaire (ITQ) for the purpose of assessing test-retest reliability only). After completing the questionnaire, subjects randomized to the TI Inhalation Powder group were trained on the MEDTONE® Inhaler using TECHNOSPHERE®/insulin (insulin-FDKP) inhalation powder; subjects in the comparator group were trained in the use of the NOVOLOG® pens; all subjects were trained in administration of LANTUS®. Additionally, all subjects were trained on a blood glucose monitoring (HBGM) meter provided at the beginning of the trial and diary and received diabetes education. Any training was repeated at Week 0, if needed.
At the beginning of the treatment phase, subjects had several titration/dose evaluation visits to adjust insulin therapy. Titration visits occurred once a week for the first 4 weeks. During Weeks 4 through 10, there were three telephone “visits” (at Week 6, Week 8, and Week 10) to titrate dose, if necessary. However, dose titration was allowed throughout the trial.
All subjects completed a 7-point blood glucose profile on any 3 days during the week immediately preceding each visit from Week 0 to Week 52. The 7 time points included samples from before breakfast and 2 hours after breakfast, before the mid-day meal and 2 hours after the mid-day meal, before the evening meal and 2 hours after the evening meal and at bedtime (7 time points a day, over 3 days). These blood glucose (BG) values were recorded in the HBGM diary that was collected at clinic visits. The diaries for Weeks 4 through 10 (during dose titration) which were discussed over the telephone were collected at the next office visits.
A meal challenge test was performed at Week 4 (during dose titration), Week 26, and Week 52. Meal challenge venous blood sampling times were: −30, 0, 30, 60, 90, 105, 120, 180, 240, 300, and 360 minutes. Blood glucose (BG) was also measured using HBGM glucose meters to aid the Investigator in treatment decisions and values were obtained at −30, 0, 60, and 120 minutes during the meal challenge.
Treatments for glycemic control used in the trial were the following: prandial insulin-FDKP (TI) inhalation powder, prandial insulin aspart, and basal insulin glargine. Subjects assigned to the TI Inhalation Powder group (TI Inhalation Powder in combination with basal insulin therapy) received sc basal insulin glargine (LANTUS®) once daily (at bedtime) and inhaled TI Inhalation Powder 3 to 4 times a day, immediately before main meals or a snack as based upon clinical need. Adjustment of the TI Inhalation Powder dose and frequency of use to greater than 3 times a day was at the discretion of the Investigator. […]

[2] = cited from earlier work
[3] = type: in vivo, human
Procedure: The insulin-FDKP formulation is administered to the subjects by oral inhalation using a MEDTONE® dry powder inhaler (MannKind Corp.). Methods and results below are described in terms of the Original Protocol (OP), which includes the meal challenge in 18 subjects with three treatments (EXUBERA®, lispro and TI) and Amendment 1 (A1), which includes 12 subjects treated with only TI and lispro. […] The subjects were screened and evaluated before, during and after the experiments and their data analyzed as described below. Subjects were selected based on several key inclusion criteria, including, male and female, having ≥18 and ≤70 years of age with clinical diagnosis of type 2 diabetes mellitus for ≥12 months. The subjects selected for the study also had stable anti-diabetic regimen with insulin for the previous 3 months; HbA1c ≤8.5%; Body Mass Index (BMI) between ≤34 kg/m^2 and ≥25 kg/m^2; urine cotinine ≤100 ng/mL; […] Criteria for exclusion from the study also included unstable diabetes control and/or evidence of serious complications of diabetes (e.g., autonomic neuropathy); serum creatinine >1.8 mg/dL in female subjects and >2.0 mg/dL in male subjects. Other clinically important pulmonary disease was confirmed by documented history or pulmonary function testing. Under OP, the study was planned to be a randomized, open label, 3-way cross-over study. […] At this analysis all patients at least had completed the meal challenge visits and only those data have been used. The screening visit(s) (V1) occurred 1 to 21 days before the first treatment visit (V2) with 7 to 21 days elapsing between treatment-visits (V2, V3, and V4) for the meal challenge test. A minimum of 8 weeks elapsed between V4 and the next treatment visit, (V6). An additional safety visit (V5) was scheduled 1-3 days prior to the first of 3 glucose clamp procedures (V6). The glucose clamp procedure occurred at 3 visits, Visits V6, V7, and V8, with 7 to 21 days elapsing between the visits. […] Each treatment visit during the meal challenge had the subjects hospitalized in the clinical unit the night before initiation of treatment. […] Each subject followed the same randomization order for the glucose-clamp procedures as for the meal challenge tests. During the study, periodic blood draws for determination of pharmacokinetic and/or pharmacodynamic parameters, and safety were taken beginning at 12 hours prior to onset of the treatment regimens and meal challenge, and thereafter for a period of 8 hours. […] Meal Challenge Test: BOOST PLUS® (12 fl. oz.) consisting of 67.5 g carbohydrate, 21 g protein, 21 g fat, energy content 540 kcal was used for the meal challenge test. The BOOST PLUS® was enriched with U-^13C-glucose to determine the amount of absorbed glucose. Concurrent enriched continuous infusion of 6,6-^2H2 glucose was used to assess endogenous glucose production EGP. […] Under OP, the dose for insulin lispro was selected based on information obtained from the regulatory label. The dose selected for EXUBERA® was obtained by means of back calculation of the most commonly used dose information presented to the FDA Advisory Committee in the EXUBERA® Briefing Document. […] Blood glucose concentrations were measured at regular intervals from arterialized venous blood samples. The amount of orally absorbed glucose was estimated by determination of U-^13C-glucose. EGP was determined by measurement of 6,6-^2H2 glucose applying the modified calculations for the non-steady state ([…], and D. T. Stein. Calculating glucose fluxes during meal tolerance test: a new computational approach. Am. J. Physiol Endocrinol. Metab 293 (2):[…]-[…], 2007). C-peptide concentrations were measured pre- and post-dose to assess endogenous insulin secretion. In addition, glucagon and free fatty acid concentrations were also determined.

[4] = type: in vivo, human; conditions: 10 U lispro
Procedure: Following the completion of the meal challenge, the data was analyzed as per the statistical analysis plan. […] The study was amended (A1) and included 12 subjects (10 were reenrolled from the first meal challenge), and only two treatments, which were 10 U lispro and 60 and 90 U TI. The doses were selected based on the relative bioavailability observed following the first meal challenge (OP), where under an assumption of linear kinetics, 10 U lispro and 60 U TI would result in similar exposure. The 90 U dose group was included to assess the effect of the highest dose group of TI studied in Phase 3 trials. Six of the 12 subjects received 60 U TI and the other 6 subjects received 90 U TI. All 12 subjects received 10 U lispro in a crossover fashion. […] Blood glucose concentrations were measured at regular intervals from arterialized venous blood samples. […] EGP was determined by measurement of 6,6-^2H2 glucose applying the modified calculations for the non-steady state ([…], and D. T. Stein. Calculating glucose fluxes during meal tolerance test: a new computational approach. Am. J. Physiol Endocrinol. Metab 293 (2):[…]-[…], 2007). C-peptide concentrations were measured pre- and post-dose to assess endogenous insulin secretion. In addition, glucagon and free fatty acid concentrations were also determined.

[5] = 52 weeks, + basal insulin glargine
[6] = 52 weeks, + basal insulin, baseline 187.6 (SD 85.1) TI, 180.8 (SD 86.9) comparator
[7] = 45 U insulin-FDKP, 4 mg EXUBERA, 12 U lispro, FIG. 6

In the case of insulin aspart, the “Percentage of subjects whose HbA1c level decreased to ≤6.5%” value [1, 5] is reported as 7.31%, the “Percentage of subjects whose HbA1c level decreased to ≤7.0%” value [1, 5] is reported as 15.98% and the “Percentage of subjects whose HbA1c level decreased to ≤8.0%” value [1, 5] is reported as 56.16%. For the same substance, the “Mean FPG at the end of the treatment period” value [1, 6] was 161.3 (SD 68.2) mg/dL, the “Mean decrease in fasting plasma glucose (FPG) over the treatment period” value [1, 6] was 23.4 (SD 103.1) mg/dL and the “HbA1c at Week 14” value ([1]; + basal insulin glargine, baseline 8.41 (SD 0.92) TI arm, 8.48 (SD 0.97) insulin aspart arm) was 8.07 (SD 1.09) %. For the same substance, the “Average body weight gain” value ([1]; over the 52-week treatment period, + basal insulin) was 1.4 kg and the “Median Tmax” value ([2]; subjects with type 1 diabetes, prescribing information) was 40 to 50 min.

For “Regular human insulin: regular human insulin preparations for subcutaneous injection, considered short acting”, the “Duration of significant elevation or activity” value ([2]; subcutaneous injection) is given as 10 to 12 h.

In the case of “insulin lispro: rapid acting insulin analog, subcutaneously administered (Eli Lilly & Co.)”, the “Time post-treatment at which (further) glucose infusion was needed to remain above 90 mg/dL” value ([3]; 45 U insulin-FDKP inhaled, 4 mg EXUBERA inhaled, 12 U lispro sc at onset of meal) is reported as about 3 h, the “Time of peak inhibition of endogenous glucose production after treatment” value ([3]; 45 U insulin-FDKP, 4 mg EXUBERA, 12 U lispro, FIG. 5) is reported as “about 80 minutes” and the “Time of peak glucose disappearance rate after dosing” value [3, 7] is reported as “about 120 minutes”. For the same substance, the “Time post dosing at which glucose disappearance rate became substantial / departed from baseline” value [3, 7] was “about 30 minutes”, the “Total insulin exposure, greater than following 45 U insulin-FDKP (TI) or 4 mg EXUBERA” value ([3]; human, in vivo) was “approximately 40%” and the “Insulin concentration tmax (median)” value ([3]; human, in vivo, 4 mg) was 75 min. The “Time of peak glucose disappearance rate after dosing” value ([4]; 60 U and 90 U insulin-FDKP, FIG. 11) was “about 100 minutes” and the “Time of peak inhibition of endogenous glucose production following dosing” value ([4]; 60 U or 90 U insulin-FDKP (two treatments, dose assignment not stated), FIG. 10) was “about 100 minutes”.

For “insulin glulisine: rapid acting insulin analog”, the “Range of Tmax” value ([2]; type 1 and type 2 diabetes populations, prescribing information) is given as 40 to 120 min.

From US12303554B2, “Use of ultrarapid acting insulin” (MannKind Corporation, priority 2008, dated 2025)
